The text below walks through data of patent US12606520B2, “Calpain-2 inhibitor compounds and methods of treatment” (WESTERN UNIVERSITY OF HEALTH SCIENCES, priority 2020, dated 2026).

The nature of series [1]: Stability in mouse liver homogenate (residual inhibition of purified human calpain-2). Particulars: B-cyclodextrin formulation, read-out: Estimated half-life in mouse liver homogenate (converted). It is filed as in vitro ADME. The method, then: Aliquots were taken and the degree of inhibition of purified human calpain-2 was measured. Results were normalized to the maximum degree of inhibition (100%) measured at t0.

Series [2] in a line: Stability in mouse plasma at 37° C. (residual inhibition of purified human calpain-2). The class given is in vitro ADME. The conditions noted are these: mouse, mouse plasma, B-cyclodextrin formulation, 0.2 mM, read-out: Estimated half-life in mouse plasma (converted). The method, then: NA112 (C12, 0.2 mM) was incubated with mouse plasma at 37° C. for the indicated periods of time. Aliquots were taken and the degree of inhibition of purified human calpain-2 was measured. Results were normalized to the maximum degree of inhibition (100%) measured at to.
NA112A in β-cyclodextrin formulation (10 μM) was incubated in mouse plasma at 37° C. for the indicated periods of time. Aliquots were taken and the degree of inhibition of purified human calpain-2 was measured. Results were normalized to the maximum degree of inhibition (50%) measured at t0.

Series [3] addresses T1, calpain-2 (Mus musculus, UniProt O08529).
T1 sequence (O08529 1-700): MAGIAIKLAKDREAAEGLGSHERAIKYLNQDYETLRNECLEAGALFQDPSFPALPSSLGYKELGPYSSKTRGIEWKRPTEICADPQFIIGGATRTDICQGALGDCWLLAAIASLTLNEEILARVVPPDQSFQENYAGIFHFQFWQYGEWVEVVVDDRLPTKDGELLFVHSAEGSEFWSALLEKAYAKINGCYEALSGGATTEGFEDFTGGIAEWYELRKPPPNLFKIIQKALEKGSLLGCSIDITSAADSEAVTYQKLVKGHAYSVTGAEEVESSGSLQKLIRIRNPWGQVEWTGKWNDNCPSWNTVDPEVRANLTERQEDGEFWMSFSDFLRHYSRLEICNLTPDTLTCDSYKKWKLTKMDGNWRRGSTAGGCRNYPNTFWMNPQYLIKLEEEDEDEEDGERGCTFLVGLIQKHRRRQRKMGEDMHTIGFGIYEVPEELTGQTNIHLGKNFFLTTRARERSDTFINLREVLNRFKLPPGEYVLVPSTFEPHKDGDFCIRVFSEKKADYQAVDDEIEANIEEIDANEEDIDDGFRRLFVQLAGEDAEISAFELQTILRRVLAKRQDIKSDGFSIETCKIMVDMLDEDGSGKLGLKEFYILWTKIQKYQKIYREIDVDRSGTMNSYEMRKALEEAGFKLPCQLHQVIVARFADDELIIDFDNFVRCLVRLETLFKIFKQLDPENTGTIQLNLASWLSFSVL
T1 sequence (O88456 1-268 partner): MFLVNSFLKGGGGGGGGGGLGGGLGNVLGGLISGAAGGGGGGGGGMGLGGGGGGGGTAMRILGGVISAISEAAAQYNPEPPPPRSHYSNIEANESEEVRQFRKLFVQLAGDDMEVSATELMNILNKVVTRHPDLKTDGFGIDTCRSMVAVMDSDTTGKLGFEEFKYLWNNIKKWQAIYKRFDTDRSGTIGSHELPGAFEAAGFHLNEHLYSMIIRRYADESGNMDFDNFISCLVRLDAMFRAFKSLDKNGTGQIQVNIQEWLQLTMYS
In words: Calpain-2 activity in calpain-1 KO mouse cerebellar homogenate (2 mM Ca2+), Suc-Leu-Tyr-AMC cleavage. It is filed as biochemical. More on the design: Calpain-2 activity=calpain activity under 2000 uM Ca^2+ in calpain-1 KO mice; from tissue; host or cells: calpain-1 knock-out mouse cerebellar (P2) homogenate. As for the experimental part: Cerebellar homogenates from wild-type (WT) or calpain-1 Knock-out (KO) mice were incubated with 20 μM calcium to activate calpain-1 or with 2 mM calcium to activate calpain-2, respectively, and increasing concentrations of NA112 (12). Calpain activity was measured by the cleavage of Succinyl-Leu-Tyr-7-amino-4-methylcoumarin (Suc-Leu-Tyr-AMC), resulting in increased fluorescence. Activity is normalized to the value measured in the presence of vehicle (DMSO).
WT or calpain-1 KO mouse cerebellar P2 homogenate (crude synaptosomal fraction) were used for measuring inhibitory activity of compounds against the mouse endogenous calpain-1/-2. Each reaction contains 100 ul of WT or calpain-1 KO mouse cerebellar P2 homogenate+0, 20 or 2000 uM Ca^2++0-10,000 nM NA184.
Calpain-2 activity=calpain activity under 2000 uM Ca^2+ in calpain-1 KO mice

Series [4] in a line: PK in mice after iv injection of liposomal NA112: plasma. The class given is in vivo. The conditions noted are these: for concentration at 0.0167 hr / concentration at 0.0833 hr / concentration at 0.25 hr / concentration at 0.5 hr / concentration at 1 hr / concentration at 2 hr / concentration at 4 hr / concentration at 8 hr / concentration at 16 hr / concentration at 24 hr: iv, 10 mg/kg, mice iv 10 mg/kg liposomes. The method, then: NA112 was prepared in liposomes at a concentration of 1.5 mg/ml. Mice were injected in the tail vein with 200 μl of NA112 in liposomes (corresponding to a dose of 10 mg/kg) and were sacrificed at the following time-points: 1, 5, 15, 30 min, 1, 2, 4, 8, 16 and 24 h. Blood was collected and plasma rapidly prepared by centrifugation. Brains were also collected. NA112 in plasma and in brain homogenates was assayed with LC/Ms and the sensitivity of the assay was 1 ng/ml. Experiments were performed in duplicate (A1 and A2 in Table 3). Results were averaged for preparing the figure and calculating the half-life of NA112 in plasma and in brain.
A two-compartment model was used to analyze the data from FIG. 14. This assumes that there is a rapid distribution of the drug from the plasma to various organs, followed by a slower elimination of the drug form the plasma. […] In FIG. 16, changes in NA112 plasma concentrations fitted with the 2-compartment model. The data from FIG. 14 are fitted with the 2-compartment model equation, showing the very good fit between the predicted values and the observed values.

The mark [5] stands for this setting: 2-compartmental model, mice iv 10 mg/kg in liposomes.
The mark [6] stands for this setting: mouse, read-out: Plasma concentration A1.
The mark [7] stands for this setting: mouse, read-out: Plasma concentration A2.
Setting [8] is: mouse, read-out: Plasma concentration Mean.

Read-outs that look alike come from different tables or passages of the source.

Consider `CCC(NC(=O)[C@H](CC(C)C)NC(=O)NCc1ccccc1)C(=O)C(=O)NCc1cc(OC)cc(OC)c1` (mixture of isomers) [NA112, (2S)-2-(3-benzylureido)-N-(1-((3,5-dimethoxybenzyl)amino)-1,2-dioxopentan-3-yl)-4-methylpentanamide], for which, in series [1], the half-life is 15 h. For the same compound, the half-life at 0.2 mM in series [2] was 17 h. In addition, in series [3] (read-out: IC50, 2000 μM Ca^2+ (calpain-1 KO), calpain-1 KO mouse cerebellar homogenate, 2 mM calcium), the IC50 stood at 106 nM. In series [4] (setting [5]), this compound displayed an A of 28944.68 ng/mL, a B of 42.70 ng/mL, a T½α of 0.23 h and a T½β of 7.80 h. In series [4] (setting [5]), this compound showed a α of 3.01 h⁻¹ and a β of 0.09 h⁻¹. In addition, in series [4] (mouse, 2-compartment model, mice iv 10 mg/kg in liposomes), the half-life is 7.8 h. The AUC from zero to infinity in series [4] (mouse, 2-compartmental model, mice iv 10 mg/kg in liposomes, read-out: AUC0-00) came to 17000 ng·h/mL. Further, in series [4] (setting [6]), the concentration at 0.0167 hr worked out at 45300 ng/mL, the concentration at 0.0833 hr amounted to 116000 ng/mL, the concentration at 0.25 hr came out at 2120 ng/mL and the concentration at 0.5 hr stood at 6760 ng/mL. For the same compound, in series [4] (setting [6]), the concentration at 1 hr was determined as 5550 ng/mL, the concentration at 2 hr was found to be 107 ng/mL, the concentration at 4 hr is 34.6 ng/mL and the concentration at 8 hr is 17.4 ng/mL. In addition, in series [4] (setting [6]), the concentration at 16 hr amounted to 10.8 ng/mL and the concentration at 24 hr came out at 5.63 ng/mL. For the same compound, in series [4] (setting [7]), the concentration at 0.0167 hr amounted to 63500 ng/mL, the concentration at 0.0833 hr is 69100 ng/mL, the concentration at 0.25 hr came out at 939 ng/mL and the concentration at 0.5 hr worked out at 432 ng/mL. Besides, in series [4] (setting [7]), the concentration at 1 hr was 390 ng/mL, the concentration at 2 hr was 84 ng/mL, the concentration at 4 hr came to 30 ng/mL and the concentration at 8 hr was 20.6 ng/mL. In addition, in series [4] (setting [7]), the concentration at 16 hr is 9.79 ng/mL and the concentration at 24 hr stood at 4.67 ng/mL. In series [4] (setting [8]), the concentration at 0.0167 hr came to 54400 ng/mL, the concentration at 0.0833 hr came out at 92300 ng/mL, the concentration at 0.25 hr was 1530 ng/mL and the concentration at 0.5 hr is 3590 ng/mL. Further, in series [4] (setting [8]), the concentration at 1 hr was found to be 2970 ng/mL, the concentration at 2 hr was found to be 95.5 ng/mL, the concentration at 4 hr was determined as 32.3 ng/mL and the concentration at 8 hr came to 19 ng/mL. Further, in series [4] (setting [8]), the concentration at 16 hr was found to be 10.3 ng/mL and the concentration at 24 hr came out at 5.15 ng/mL.
In the case of `CCC(NC(=O)[C@H](CC(C)C)NC(=O)NCc1ccccc1)C(=O)C(=O)NCc1cccc(Cl)c1OC` (stereo partly drawn) [NA184, (2S)-2-(3-benzylureido)-N-(1-((3-chloro-2-methoxybenzyl)amino)-1,2-dioxopentan-3-yl)-4-methylpentanamide], the “Ratio (IC50 calpain-1/calpain-2)” value in series [3] (mouse cerebellar P2 homogenate) stood at 21.
